Assay results reported in US9540649B2, “Method for opening tight junctions” (The Provost, Fellows and Scholars of the College of the …, priority 2007, dated 2017).
Entries after “also recorded” stand apart in the source; their conditions may differ.

Legend:
[1] = MRI blood flow/volume (mean transit time, capillary transit time) in brain after claudin-5 siRNA; format: in vivo, mice; conditions: 24 and 48 hours post-high volume tail vein injection; up to 8 animals per group
Procedure: 48 hours post-delivery of siRNA targeting claudin-5 or a non-targeting siRNA, a solution containing Gd-DTPA injected to the claudin-5 suppressed mice. Gd-DTPA was injected in the tail vein to assess whether Gd-TPA would permeate across the BBB. Following injection of siRNA and using appropriate controls, BBB integrity to a molecule of 742 Daltons (Gd-DTPA) was assessed via MRI, using a dedicated small rodent Bruker BioSpec 70/30 (i.e. 7 T, 30 cm bore) with an actively shielded USR Magnet. Mice were anaesthetised with isofluorane, and physiologically monitored (ECG, respiration and temperature) and placed on an MRI-compatible support cradle, which has a built-in system for maintaining the animal's body temperature at 37° C. The cradle was then positioned within the MRI scanner. Accurate positioning is ensured by acquiring an initial rapid pilot image, which is then used to ensure the correct geometry is scanned in all subsequent MRI experiments. […] Statistical analysis of all densitometric results of combined regions of the Cerebellum, Hippocampus and Cortex was performed using ANOVA, with significance represented by a P value of ≦0.05, and results are presented both graphically and in a quantitative image depicting the rate of Gd-DTPA deposition within the brain. […]
This is calculated from the first moment or mean of the curve. […]

Tie-2 = Tie-2 expression following suppression of claudin-5 (Western blot); format: in vivo, C57/Bl6 mice; conditions: any time point post delivery of claudin-5 siRNA
[2] = MRI water diffusion in the brains of mice after claudin-5 siRNA; format: in vivo; conditions: 24 and 48 hours post injection
Procedure: 24 and 48 hours post-delivery of siRNA targeting claudin-5 or a non-targeting siRNA mice were anaesthetised with isofluorane, and physiologically monitored (ECG, respiration and temperature) and placed on an MRI-compatible support cradle, which has a built-in system for maintaining the animal's body temperature at 37° C. The cradle was then positioned within the MRI scanner. Accurate positioning is ensured by acquiring an initial rapid pilot image, which is then used to ensure the correct geometry is scanned in all subsequent MRI experiments. Upon insertion into the MRI scanner, high resolution anatomical images of the brain were acquired (100 μm in-plane and 500 μm through-plane spatial resolution). Water diffusion scans were subsequently undertaken. Using a standard diffusion imaging sequence such as a spin-echo EPI imaging sequence with diffusion gradients (Stejskal-Taner gradients) in order to acquire images over a large range of b-values. In this way, the effect of the technique in the vascular compartment and in the brain parenchymal tissue can be compared. All experiments were carried out on a 7 T Brüker small-bore system with 400 mT/m maximum gradient strength. Image processing and calculation of ADCs was carried out using IDL.

claudin-1 = test: Claudin-1 expression following suppression of claudin-5 (Western blot, double immunostaining); format: in vivo, C57/Bl6 mice
BBB = test: MRI assessment of BBB integrity with contrasting agent Gd-DTPA (742 Da); format: in vivo, C57/Bl6 mice
Procedure: Following injection of siRNA and using appropriate controls, BBB integrity was assessed in vivo via MRI, using a dedicated small rodent Bruker BioSpec 70/30 (i.e. 7 T, 30 cm bore) with an actively shielded USR Magnet. Mice were anaesthetised with isofluorane, and physiologically monitored (ECG, respiration and temperature) and placed on an MRI-compatible support cradle, which has a built-in system for maintaining the animal's body temperature at 37° C. The cradle was then positioned within the MRI scanner. Accurate positioning is ensured by acquiring an initial rapid pilot image, which is then used to ensure the correct geometry is scanned in all subsequent MRI experiments. Upon insertion into the MRI scanner, high resolution anatomical images of the brain were acquired (100 μm in-plane and 500 μm through-plane spatial resolution). BBB integrity was then visualised in high resolution T1 weighted MR images before and after injection of a 0.1 mM/L/kg bolus of Gd-DTPA (Gadolinium diethylene-triamine pentaacetic acid), administered via the tail vein.
Gd-DTPA was injected in the tail vein to assess whether Gd-TPA would permeate across the BBB. Following injection of siRNA and using appropriate controls, BBB integrity to a molecule of 742 Daltons (Gd-DTPA) was assessed via MRI, using a dedicated small rodent Bruker BioSpec 70/30 (i.e. 7 T, 30 cm bore) with an actively shielded USR Magnet. Mice were anaesthetised with isofluorane, and physiologically monitored (ECG, respiration and temperature) and placed on an MRI-compatible support cradle, which has a built-in system for maintaining the animal's body temperature at 37° C. The cradle was then positioned within the MRI scanner. Accurate positioning is ensured by acquiring an initial rapid pilot image, which is then used to ensure the correct geometry is scanned in all subsequent MRI experiments. Upon insertion into the MRI scanner, high resolution anatomical images of the brain were acquired (100 μm in-plane and 500 μm through-plane spatial resolution). BBB integrity was then visualised in high resolution T1 weighted MR images before and after injection of a 0.1 mM/L/kg bolus of Gd-DTPA (Gadolinium diethylene-triamine pentaacetic acid), administered via the tail vein. Following injection of Gd-DTPA, repeated 3 minute T1-weighted scans were performed over a period of 30 minutes, and images shown are representative of the final scans of this 30 minute period. Statistical analysis of all densitometric results of combined regions of the Cerebellum, Hippocampus and Cortex was performed using ANOVA, with significance represented by a P value of ≦0.05, and results are presented both graphically and in a quantitative image depicting the rate of Gd-DTPA deposition within the brain. All MRI scans were performed on 2 mice from each experimental treatment.

claudin-5 siRNA: siRNA, sense CGUUGGAAAUUCUGGGUCUUU (SEQ ID NO: 1), antisense AGACCCAGAAUUUCCAACGUU (SEQ ID NO: 2) (listed as RNA, chemistry not given here)
blood flow / blood volume in major brain vessels and capillaries (MTT, CTT), MRI [1]: no significant differences in blood flow; also recorded: not observing any difference in blood flow or blood volume
Tie-2 (140 kDa) expression, Western blot (Tie-2): no distinct changes
rate of water diffusion in the brain, MRI [2]: no changes in diffusion
rate of water diffusion in the brain, MRI ([2]; listed as siRNA targeting claudin-5): no change in the rate of water diffusion
claudin-1 (23 kDa) expression, Western blot (claudin-1; 24, 48, 72 hours and 1 week post delivery of claudin-5 siRNA): no changes at any time points
claudin-1 expression, double immunostaining in brain cryosections (claudin-1; each time point post-injection of claudin-5 siRNA): remain similar to those observed in the control groups
densitometric analysis of MRI contrasting, Cerebellum, Hippocampus and Cortex combined (BBB; 24 hours and 48 hours post injection, vs control groups): significant increase in contrasting
Gd-DTPA (742 Da) passage across BBB, MRI (BBB; 24 hours post-injection): Gd-DTPA crossed the BBB and was deposited within the brain
Gd-DTPA (742 Da) passage across BBB, MRI (BBB; 48 hours post-injection): Gd-DTPA crossed the BBB and was deposited within the brain; also recorded: Gd-DTPA crossed the BBB and was deposited in the parenchymal tissue of the brain; also recorded: widespread and intense contrasting throughout the brain; also recorded: extremely large quantities of Gd-DTPA were deposited in the brain
Gd-DTPA (742 Da) passage across BBB, MRI (BBB; 48 hours post-injection, listed as siRNA targeting claudin-5): enhanced contrasting within the brain
Gd-DTPA (742 Da) passage across BBB, MRI (BBB; 72 hours or 1 week post-injection): intact barrier with no deposition of Gd-DTPA
Gd-DTPA (742 Da) passage across BBB, MRI (BBB; 72 hours or 1 week post-injection, listed as siRNA targeting claudin-5): nor was it present; also recorded: no deposition of Gd-DTPA
